Measured values taken from PubChem BioAssay AID2060495 (Molecular Pharmacology Branch, DTP, NCI, 2025).

Tested on: 521955-158-R2-J5-PDC complex spheroid viability
Test: Anticancer human tumor 521955-158-R2-J5-PDC patient-derived pancreatic carcinoma cell line growth inhibition [GQUAD]
Settings: for IC50: curve of first compound; for viability, T/C: stronger effect = lower value
Text: DNA G-quadruplex Stabilizer Agents in Combinations in Complex Spheroids
A high-throughput screen of multi-cell type tumor spheroids was designed to identify active combinations of DNA G-quadruplex stabilizer agents and targeted small molecules. Complex spheroids include a stromal component modeled by human endothelial cells (HUVEC) and fibroblasts modeled by human mesenchymal stem cells (MSCs). The concentration ranges selected for each drug and investigational agent were based upon clinically achievable concentrations if the clinical Cmax of the agent was known.
Compounds. The drugs and investigational agents: pidnarulex (CX-5461; NSC782164), APTO-253 (NSC789042), BRACO-19 (NSC847499), peposertib (NSC802822), ceralasertib (NSC780249), elimusertib (NSC800525), camonsertib (NSC841442), AZD-1390 (NSC803789), olaparib (NSC753686), talazoparib (NSC767125), ART-558 (NSC835418), sotorasib (NSC818433), MRTX-1133 (NSC836407), SN-38 (NSC673596), topotecan (NSC609699), etoposide (NSC141540), doxorubicin (NSC123127), gemcitabine (NSC613327), 5-fluorouracil (NSC19893), paclitaxel (NSC125973), vemurafenib (NSC761431), panobinostat (NSC761190), R-306465 (JNJ-16241199; NSC773264), adavosertib (NSC754352), TP-3654 (NSC805149), carboplatin (NSC241240), KSQ-4279 (NSC840948), and staurosporine (NSC755774) were obtained from the National Cancer Institute (NCI) Developmental Therapeutics Program Chemical Repository (34). The FDA-approved anticancer drug set is available from the NCI Developmental Therapeutics Program. […] The stock solutions were prepared in dimethyl sulfoxide (DMSO, Sigma-Aldrich, St. Louis, MO, cat. D2650) at 800-fold the tested concentration and stored at -70 degrees C prior to their use. All drugs and investigational agents were tested over a range starting from a high concentration at or near the clinical Cmax and decreasing in half-log increments. If the clinical Cmax for an agent had not been determined, the highest concentration tested was 10 microM.
2.3 Cell Culture. All cells were maintained in an incubator at 37 degrees C and 5% CO2 with 95% humidity. The PDC lines were cultured according to standard operating procedures established by the NCI PDMR. All PDCs were thawed and cultured in Matrigel-coated flasks prepared with a working solution of 1X Ham's F-12 nutrient mix, without supplementation (Invitrogen, cat. 11765054), 100 U/mL penicillin-streptomycin (Invitrogen, cat. 15140122), and 2.5% Matrigel (Corning Inc., cat. 354248) for the first three passages. The 857933-349-R-J2-PDC line was cultured in 6C/Colon 1B media, which includes advanced DMEM/F-12 (Thermo Fisher Scientific, cat. 12634028), 10 mM HEPES (Thermo Fisher Scientific, cat. 15630080), 1X GlutaMAX supplement (Thermo Fisher Scientific, cat. 35050061), 0.1 mg/mL primocin (InvivoGen, cat. ant-pm-2), 10% defined fetal bovine serum, heat inactivated (HyClone Laboratories Inc., cat. SH30070.03HI), 50% L-WRN conditioned media (ATCC, cat. CRL-3276), 1.25 mM N-Acetyl-L-cysteine (Sigma-Aldrich, cat. A9165), 10 mM nicotinamide (Sigma-Aldrich, cat. N0636), 1X B-27 supplement (Thermo Fisher Scientific, cat. 17504044), 1X N-2 supplement (Thermo Fisher Scientific, cat. 17502048), 10 microM Y-27632 dihydrochloride (Tocris Bioscience, cat. 1254), and 50 ng/mL human EGF recombinant protein (Thermo Fisher Scientific, cat. PHG0311). The 485176-168-R4-J1-PDC line was cultured in Panc media, which includes all 6C/Colon 1B media components plus 100 ng/mL human FGF-10 (Thermo Fisher Scientific, cat. 100-26), 500 nM SB-431542 (Selleckchem, cat. S1067), and gastrin (Tocris, cat. 3006).
[…]

[1] = second compound 0.0316 µM, first compound 0.0316 µM
[2] = second compound 0.0316 µM, first compound 0.316 µM
[3] = second compound 0.1 µM, first compound 0.0316 µM
[4] = second compound 0.1 µM, first compound 0.316 µM
[5] = second compound 0.316 µM, first compound 0.0316 µM
[6] = second compound 0.316 µM, first compound 0.316 µM
[7] = second compound 1 µM, first compound 0.0316 µM
[8] = second compound 1 µM, first compound 0.316 µM
[9] = second compound 3.16 µM, first compound 0.0316 µM
[10] = second compound 3.16 µM, first compound 0.316 µM
[11] = second compound 10 µM, first compound 0.0316 µM
[12] = second compound 10 µM, first compound 0.316 µM
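Also: spheroids exposed to agents for one week before reading.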
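For viability, T/C in this document: 100% = DMSO vehicle control viability.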

In the case of `CC[C@@]1(O)C(=O)OCc2c1cc1n(c2=O)Cc2cc3c(CN(C)C)c(O)ccc3nc2-1` + Cc1cnc(CNC(=O)c2c(=O)c3ccc(N4CCCN(C)CC4)nc3n3c2sc2ccccc23)cn1, the IC50 (second compound 0.0316 µM) is reported as 56.2 nM, the IC50 (second compound 0.1 µM) is reported as 27.8 nM and the IC50 (second compound 0.316 µM) is reported as 10.7 nM. For the same molecule, the IC50 (second compound 1 µM) was less than 0.999 nM, the IC50 (second compound 3.16 µM) was less than 0.999 nM and the IC50 (second compound 10 µM) was less than 0.999 nM. The viability, T/C (second compound 0.0316 µM, first compound 0.000999 µM) was 82.3%, the viability, T/C (second compound 0.0316 µM, first compound 0.00316 µM) was 80.4% and the viability, T/C (second compound 0.0316 µM, first compound 0.00999 µM) was 59.7%. The viability, T/C [1] was 71.6%, the viability, T/C (second compound 0.0316 µM, first compound 0.0999 µM) was 29% and the viability, T/C [2] was 12.1%. It also gave a viability, T/C (second compound 0.1 µM, first compound 0.000999 µM) of 74.9%, a viability, T/C (second compound 0.1 µM, first compound 0.00316 µM) of 78% and a viability, T/C (second compound 0.1 µM, first compound 0.00999 µM) of 73.3%. It also gave a viability, T/C [3] of 46.7%, a viability, T/C (second compound 0.1 µM, first compound 0.0999 µM) of 22.4% and a viability, T/C [4] of 16.2%. The viability, T/C (second compound 0.316 µM, first compound 0.000999 µM) was 51.6%, the viability, T/C (second compound 0.316 µM, first compound 0.00316 µM) was 47.2% and the viability, T/C (second compound 0.316 µM, first compound 0.00999 µM) was 55%. It also gave a viability, T/C [5] of 29.6%, a viability, T/C (second compound 0.316 µM, first compound 0.0999 µM) of 18.7% and a viability, T/C [6] of 15.6%. For the same molecule, the viability, T/C (second compound 1 µM, first compound 0.000999 µM) was 23.7%, the viability, T/C (second compound 1 µM, first compound 0.00316 µM) was 24.9% and the viability, T/C (second compound 1 µM, first compound 0.00999 µM) was 24.6%. It also gave a viability, T/C [7] of 19%, a viability, T/C (second compound 1 µM, first compound 0.0999 µM) of 16.7% and a viability, T/C [8] of 11.2%. For the same molecule, the viability, T/C (second compound 3.16 µM, first compound 0.000999 µM) was 21.1%, the viability, T/C (second compound 3.16 µM, first compound 0.00316 µM) was 29.1% and the viability, T/C (second compound 3.16 µM, first compound 0.00999 µM) was 18.2%. It also gave a viability, T/C [9] of 17.8%, a viability, T/C (second compound 3.16 µM, first compound 0.0999 µM) of 11.8% and a viability, T/C [10] of 10.1%. For the same molecule, the viability, T/C (second compound 10 µM, first compound 0.000999 µM) was 21.3%, the viability, T/C (second compound 10 µM, first compound 0.00316 µM) was 23.7% and the viability, T/C (second compound 10 µM, first compound 0.00999 µM) was 22.1%. For the same molecule, the viability, T/C [11] was 15.7%, the viability, T/C (second compound 10 µM, first compound 0.0999 µM) was 11.5% and the viability, T/C [12] was 6.12%.

Work on `O=C(NO)c1cnc(N2CCN(S(=O)(=O)c3ccc4ccccc4c3)CC2)nc1` + Cc1cnc(CNC(=O)c2c(=O)c3ccc(N4CCCN(C)CC4)nc3n3c2sc2ccccc23)cn1 yielded an IC50 (second compound 0.0316 µM) of 233 nM, an IC50 (second compound 0.1 µM) of 167 nM and an IC50 (second compound 0.316 µM) of less than 31.6 nM. It also gave an IC50 (second compound 1 µM) of less than 31.6 nM, an IC50 (second compound 3.16 µM) of less than 31.6 nM and an IC50 (second compound 10 µM) of less than 31.6 nM. For the same molecule, the viability, T/C [1] was 106%, the viability, T/C (second compound 0.0316 µM, first compound 0.1 µM) was 78.9% and the viability, T/C [2] was 42.1%. It also gave a viability, T/C (second compound 0.0316 µM, first compound 1 µM) of 5.64%, a viability, T/C (second compound 0.0316 µM, first compound 3.16 µM) of 0.04% and a viability, T/C (second compound 0.0316 µM, first compound 10 µM) of 0.1%. For the same molecule, the viability, T/C [3] was 53.6%, the viability, T/C (second compound 0.1 µM, first compound 0.1 µM) was 51.4% and the viability, T/C [4] was 47%. For the same molecule, the viability, T/C (second compound 0.1 µM, first compound 1 µM) was 6.79%, the viability, T/C (second compound 0.1 µM, first compound 3.16 µM) was 0.05% and the viability, T/C (second compound 0.1 µM, first compound 10 µM) was 0.08%. For the same molecule, the viability, T/C [5] was 27.5%, the viability, T/C (second compound 0.316 µM, first compound 0.1 µM) was 36.1% and the viability, T/C [6] was 29.8%. For the same molecule, the viability, T/C (second compound 0.316 µM, first compound 1 µM) was 1.02%, the viability, T/C (second compound 0.316 µM, first compound 3.16 µM) was 0.05% and the viability, T/C (second compound 0.316 µM, first compound 10 µM) was 0.07%. The viability, T/C [7] was 20.1%, the viability, T/C (second compound 1 µM, first compound 0.1 µM) was 22.9% and the viability, T/C [8] was 12.9%. The viability, T/C (second compound 1 µM, first compound 1 µM) was 0.1%, the viability, T/C (second compound 1 µM, first compound 3.16 µM) was 0.04% and the viability, T/C (second compound 1 µM, first compound 10 µM) was 0.08%. The viability, T/C [9] was 11.7%, the viability, T/C (second compound 3.16 µM, first compound 0.1 µM) was 17.4% and the viability, T/C [10] was 4.19%. The viability, T/C (second compound 3.16 µM, first compound 1 µM) was 0.1%, the viability, T/C (second compound 3.16 µM, first compound 3.16 µM) was 0.07% and the viability, T/C (second compound 3.16 µM, first compound 10 µM) was 0.11%. The viability, T/C [11] was 11.8%, the viability, T/C (second compound 10 µM, first compound 0.1 µM) was 8.03% and the viability, T/C [12] was 2.82%. It also gave a viability, T/C (second compound 10 µM, first compound 1 µM) of 0.14%, a viability, T/C (second compound 10 µM, first compound 3.16 µM) of 0.15% and a viability, T/C (second compound 10 µM, first compound 10 µM) of 0.18%.
